Assay results taken from patent US8048888B2, “Anti-proliferative combination therapy using certain platinum-based chemotherapeutic agents and EGFR inhibitors or pyrimidine analogues” (Agennix AG, priority 2005, dated 2011).
Read-outs that look alike come from different tables or passages of the source.

Tests used:
[1] = test system: MCF7 cell line; assay: SRB assay, simultaneous JM118 and 5FU, 48 hours; format: cell-based; details: Homo sapiens, read-out: Growth inhibition
Experimental: For this experiment the human colorectal carcinoma cell line HCT 116 (ATCC order number: CCL-247; Cancer Res (1981) 41, 1751; J Natl Cancer Inst (1982) 69, 767) and the human adenocarcinoma cell line MCF7 (ATCC order number: HTB-22; Cancer Res (1983) 43, 2831; Science (1985) 230, 943) were used.
5FU was dissolved in 0.1% DMSO at a concentration of 20 mM.
Cells were incubated with both compounds simultaneously.

[2] = test system: MX-1 tumor (human breast carcinoma); details: for Median tumor volume / T/C %: capecitabine 750 mg/kg/adm PO Q1Dx8
Experimental: Healthy female SWISS nu/nu mice, 6-7 weeks old, 17-22 g, were obtained from Charles River (L'Arbresle, France). Animals were acclimated for seven days in a specific-pathogen-free (SPF) animal care unit before treatment. MX-1 tumor implants were purchased and provided by Oncodesign (Dijon, France). MX-1 is a human breast carcinoma cell line.
To induce MX-1 tumors in nude mice ten female SWISS nude mice were subcutaneously implanted with thawed fragments of MX-1 tumor 24 hours after whole body irradiation with a γ-source (Co^60, INRA, Dijon, France). Mice were continuously monitored and terminated when tumors reached 700 to 1000 mm^3. Tumors were then surgically excised and homogenous fresh fragments were subcutaneously implanted in the right flanks of 130 SWISS nude mice.
Ninety (90) mice were randomized into 9 groups of 10 mice each.
Suspensions were continuously agitated during administration to mice.
The treatment schedule was as follows (all dosage indicated are dosages per administration): • Mice from group 1 received one daily PO (oral) administration of satraplatin vehicle (arachis oil, see above) for 5 consecutive days from D21 (day 21) to D25 (referred to as Q1D×5) in combination with one daily PO administration of capecitabine vehicle (Citrate buffer containing Arabic gum, see above) for 8 consecutive days from D21 to D28 (Q1D×8), • Mice from group 2 received one daily PO administration of capecitabine at 750 mg/kg (milligram per kilogram of body weight) for 8 consecutive days from D21 to D28 (Q1D×8), • Mice from group 3 received one daily PO administration of satraplatin at 5 mg/kg for 5 consecutive days from D21 to D25 (Q1D×5), • Mice from group 4 received one daily PO administration of satraplatin at 15 mg/kg for 5 consecutive days from D21 to D25 (Q1 D×5), • Mice from group 5 received one daily PO administration of satraplatin at 25 mg/kg for 5 consecutive days from D21 to D25 (Q1D×5), • Mice from group 6 received one daily PO administration of satraplatin at 45 mg/kg for 5 consecutive days from D21 to D25 (Q1D×5), • Mice from group 7 received one daily PO administration of satraplatin at 5 mg/kg for 5 consecutive days from D21 to 025 (Q1D×5) in combination with one daily PO administration of capecitabine at 750 mg/kg for 8 consecutive days from D21 to D28 (Q1D×8), • Mice from group 8 received one daily PO administration of satraplatin at 15 mg/kg for 5 consecutive days from D21 to D25 (Q1D×5) in combination with one daily PO administration of capecitabine at 750 mg/kg for 8 consecutive days from D21 to D28 (Q1D×8), • Mice from group 9 received one daily PO administration of satraplatin at 25 mg/kg for 5 consecutive days from D21 to D25 (Q1D×5) in combination with one daily PO administration of capecitabine at 750 mg/kg for 8 consecutive days from D21 to D28 (Q1D×8). Satraplatin was administered 30 minutes after capecitabine. Satraplatin and capecitabine were administered at a dose volume of 10 ml/kg body weight.
During the course of the experiment, viability and behaviour of mice were recorded every day. Mice body weight and tumor volume was recorded twice a week. Mice were terminated when tumor weight was equivalent to 10% of body weight or when a body weight loss of 20% was observed.
Tumor growth inhibition (T/C %) is defined as the ratio of the median tumor volume of a given treated group (test or reference substance) versus the equivalent median volume from the control group. T/C % is calculated as follows: […]
The optimal value is the minimal T/C % ratio that reflects the maximal tumor growth inhibition achieved.
Tumor Log cell kill was calculated using the following formula:
[formula] wherein DT is the doubling time of the tumor.

[3] = test system: A129 cp80 cell line; assay: SRB cytotoxicity assay, 48 hours, cisplatin-resistant A129 cp80; format: cell-based
Experimental: (§1) The parental non-mutated cell line A129 was used as control.
(§2) Briefly, cells were plated in 96 well dishes 24 hours prior to compound addition. The assay was terminated with the addition of cold TCA to a final concentration of 10% and the plates were incubated for one hour at 4° C. The plates were then washed 5 times with water and 100 μl of a Sulforhodamine B solution ([…]) was added to each well. The plate was then incubated for 10 minutes at room temperature before removal of unbound dye by washing with 1% acetic acid. The bound dye was solubilized with 10 mM Trizma base and the absorbance read at OD570.
(§3) Numbers in brackets indicate how often experiments were performed. In each single experiment a minimum of three replica wells was used for each drug concentration and cell line. Shown are mean values and standard deviations of the IC50s, as determined in the individual experiments. RR denominates the relative resistance, i.e. the relative level of resistance conferred to the indicated drugs.

[4] = test system: A129; assay: SRB cytotoxicity assay, 48 hours, parental cell line A129; format: cell-based; details: A129, 48 hours
Experimental: as §1, §2, §3

[5] = test system: UM-UC-3 cell line; assay: SRB assay, sequential: gemcitabine 48 hours, followed by JM118 48 hours; format: cell-based; details: Homo sapiens, UMUC3, Gemcitabine first, read-out: Growth inhibition
Experimental: (§4) Gemcitabine was dissolved in saline at a concentration of 10 mM. Cells were seeded at 1,500 cells per well.
Cells were incubated with both compounds sequentially, wherein cells were incubated with gemcitabine first.

[6] = test system: UM-UC-3 cell line; assay: SRB assay, sequential: JM-118 48 hours, followed by gemcitabine 48 hours; format: cell-based; details: Homo sapiens, UMUC3, JM118 first, read-out: Growth inhibition
Experimental: as §4
Cells were incubated with both compounds sequentially, wherein cells were incubated with JM118 first.

In the case of `O=c1[nH]cc(F)c(=O)[nH]1` [5FU, 5-fluorouracil], the inhibition at 0.3125 µM ([1]; JM118 0 + 5FU 0.3125 μM) is reported as 1.1%, the inhibition at 0.625 µM ([1]; JM118 0 + 5FU 0.625 μM) is reported as 2.9% and the inhibition at 1.25 µM ([1]; JM118 0 + 5FU 1.25 μM) is reported as 7.2%. The inhibition at 2.5 µM ([1]; JM118 0 + 5FU 2.5 μM) was 17.3%, the inhibition at 5 µM ([1]; JM118 0 + 5FU 5 μM) was 37.4% and the inhibition at 10 µM ([1]; JM118 0 + 5FU 10 μM) was 67.7%.
In the case of `CCCCCOC(=O)Nc1nc(=O)n([C@@H]2O[C@H](C)[C@@H](O)[C@H]2O)cc1F` [Capecitabine], the “tumor log cell kill” value ([2]; capecitabine 750 mg/kg alone) is reported as 0.2, the Median tumor volume ([2]; D21) is reported as 98.8 mm^3 and the T/C % ([2]; D21) is reported as 124%. The Median tumor volume ([2]; D26) was 217.5 mm^3, the T/C % ([2]; D26) was 114% and the Median tumor volume ([2]; D29) was 322.1 mm^3. For the same molecule, the T/C % ([2]; D29) was 81%, the Median tumor volume ([2]; D33) was 498.2 mm^3 and the T/C % ([2]; D33) was 65%. For the same molecule, the Median tumor volume ([2]; D36) was 711.0 mm^3, the T/C % ([2]; D36) was 62% and the Median tumor volume ([2]; D40) was 1046.3 mm^3. It also gave a T/C % ([2]; D40) of 66%, a Median tumor volume ([2]; D43) of 1598.0 mm^3 and a T/C % ([2]; D43) of 68%.
With `N.N.[Cl][Pt][Cl]` [Cisplatin] the IC50 ([3]; A129 cp80, 48 hours) was 15.1 µM, the “RR (relative resistance)” value ([3]; A129 cp80 versus A129) was 80 +/− 25 and the IC50 [4] was 0.23 µM.
In the case of `Nc1ccn([C@@H]2O[C@H](CO)[C@@H](O)C2(F)F)c(=O)n1` [Gemcitabine, 2′,2′-difluorodeoxycytidine], the inhibition at 0.0015625 µM ([5]; JM118 0 + Gemcitabine 0.0015625 μM) is reported as 0.2%, the inhibition at 0.003125 µM ([5]; JM118 0 + Gemcitabine 0.003125 μM) is reported as 1.2% and the inhibition at 0.00625 µM ([5]; JM118 0 + Gemcitabine 0.00625 μM) is reported as 8.3%. For the same molecule, the inhibition at 0.0125 µM ([5]; JM118 0 + Gemcitabine 0.0125 μM) was 41.7%, the inhibition at 0.025 µM ([5]; JM118 0 + Gemcitabine 0.025 μM) was 87.8% and the inhibition at 0.05 µM ([5]; JM118 0 + Gemcitabine 0.05 μM) was 103%. For the same molecule, the inhibition at 0.002 µM ([6]; JM118 0 + Gemcitabine 0.0020 μM) was 2.6%, the inhibition at 0.0039 µM ([6]; JM118 0 + Gemcitabine 0.0039 μM) was 8.7% and the inhibition at 0.0078 µM ([6]; JM118 0 + Gemcitabine 0.0078 μM) was 23.4%. The inhibition at 0.0156 µM ([6]; JM118 0 + Gemcitabine 0.0156 μM) was 43.9%, the inhibition at 0.0313 µM ([6]; JM118 0 + Gemcitabine 0.0313 μM) was 57.8% and the inhibition at 0.0625 µM ([6]; JM118 0 + Gemcitabine 0.0625 μM) was 63.3%.
For `CC(=O)[O][Pt]([NH2])([Cl])([Cl])([NH]C1CCCCC1)[O]C(C)=O` [Satraplatin], the toxicity in mice ([2]; satraplatin 45 mg/kg) was “toxic effects”.
